Experimental data as given in patent publication US20120149080A1, “YEAST PRODUCTION CULTURE FOR THE PRODUCTION OF BUTANOL” (Butamax(TM) Advanced Biofuels LLC, priority 2010, published 2012).

Tests used:
S. cerevisiae PNY0569 = experiment: Glucose utilization rate under non-growing conditions in buffer; format: cell-based, Saccharomyces cerevisiae; settings: PNY0569, 20 g/L isobutanol
Method: (§1) Isobutanol production may or may not be coupled to growth. Therefore we measured the glucose consumption rates under non-growing conditions using three different pH buffers.
(§2) Glucose consumption rates were determined in phosphate buffer pH 6.5 as outlined by Diderich, J. A., et al., Microbiology, 1999, 145 p. 3447-54. We also determined the glucose consumption rates at pH 5.25 and pH 4.0 using MES buffer.
(§3) Cells were grown overnight at 30° C. in YPD (125 ml in a 500 ml flask). Cells were centrifuged and resuspended in buffer (0.1M phosphate buffer pH 6.0 or 0.1M MES buffer pH 5.25 or 0.1M MES buffer pH 4.0), washed one time, and then resuspended such that each cell suspension had approximately 16 OD or 160 million cell/ml. 10 ml of these stock cells were transferred to flasks containing 10 ml of the corresponding buffer containing 40 g/L glucose and varying concentrations of isobutanol. At various times samples (500 to 700 ul) were transferred to a tube containing an equal volume of 10% TCA. Samples were centrifuged and glucose determined in the YSI glucose analyzer. Glucose consumption rates were determined by plotting the amount of glucose consumed over time.

S. cerevisiae PNY0602 = experiment: as above; format: cell-based, Saccharomyces cerevisiae; settings: PNY0602, 20 g/L isobutanol
Method: as §1, §2, §3

S. cerevisiae PNY0614 = experiment: as above; format: cell-based, Saccharomyces cerevisiae; settings: PNY0614, 20 g/L isobutanol
Method: as §1, §2, §3

[1] = tested on: Saccharomyces cerevisiae BY4743; experiment: Glucose utilization rate in high cell density culture in YPD; format: cell-based
Method: Saccharomyces cerevisiae BY4743 was plated from a freezer vial onto YPD agar (Teknova, Hollister, Calif.; Cat. #Y1000) and incubated overnight at 30° C. Cells from the YPD plate were inoculated into a 25 ml pre-culture of YPD broth (Teknova, Hollister, Calif.; Cat. #Y5000) with an initial OD600 of 0.06 to 0.08, and this culture was grown for 7 hours in an air shaker at 30° C. An aliquot of the pre-culture was inoculated into 200 ml of YPD broth with an initial OD600 of 0.06 to 0.08, and this culture was incubated with aeration at 30° C. for approximately 17 hours. The optical density of the culture was determined, the culture was centrifuged and the cells were resuspended in fresh YPD broth to yield an OD600 of 8. […] Time of addition of cells was referred to as 0 hours. At various times, samples (1.5 ml) were withdrawn and centrifuged at 10,000 rpm for 2 minutes in a microfuge (Sorvall Biofuge pico). […] YSI, Inc., Yellow Springs, Ohio). Glucose consumption rates in the presence of isobutanol were also determined when the cell concentration was 18 gdcw/L or 24 gdcw/L. Cells from the YPD plate were inoculated into a 25 ml pre-culture of YPD broth (Teknova, Hollister, Calif. Cat. #Y5000) with an initial OD600 of 0.06 to 0.08, and this culture was grown for 7 hours in an air shaker at 30° C. […] The optical density of the culture was determined, the culture was centrifuged and the cells were resuspended in fresh YPD broth to yield an OD600 of 38 (18 gdcw/L). […] The experiment was repeated except that the starting OD600 was 49.1 (24 gdcw/L). […] The results for BY4743 are graphed in FIG. 4.

[2] = 1.5% isobutanol, 3.8 and 24 gdcw/L cultures

`CC(C)CO` [Isobutanol, isobutanol] was tested, and the “Glucose Utilization (g/gdcw/h)” value (S. cerevisiae PNY0569; pH 4, non-growing) was 0.7 g/gdcw/h, the “Glucose Utilization (g/gdcw/h)” value (S. cerevisiae PNY0569; pH 5.25, non-growing) was 0.8 g/gdcw/h and the “Glucose Utilization (g/gdcw/h)” value (S. cerevisiae PNY0569; pH 6.5, non-growing) was 0.6 g/gdcw/h. For the same compound, the “Glucose Utilization (g/gdcw/h)” value (S. cerevisiae PNY0602; pH 4, non-growing) was 0.9 g/gdcw/h, the “Glucose Utilization (g/gdcw/h)” value (S. cerevisiae PNY0602; pH 5.25, non-growing) was 1.1 g/gdcw/h and the “Glucose Utilization (g/gdcw/h)” value (S. cerevisiae PNY0602; pH 6.5, non-growing) was 0.7 g/gdcw/h. The “Glucose Utilization (g/gdcw/h)” value (S. cerevisiae PNY0614; pH 4, non-growing) was 0.9 g/gdcw/h, the “Glucose Utilization (g/gdcw/h)” value (S. cerevisiae PNY0614; pH 5.25, non-growing) was 1.1 g/gdcw/h and the “Glucose Utilization (g/gdcw/h)” value (S. cerevisiae PNY0614; pH 6.5, non-growing) was 0.7 g/gdcw/h. For the same compound, the “calculated rate of glucose utilization” value ([1]; 1% isobutanol, high cell density cultures) was “at least 1.4 gram per gdcw per hour”, the glucose consumption rate [1, 2] was “about 1.1 g/gdcw/h” and the “glucose consumption rate, % of the control rate” value [1, 2] was “approximately 50%”. For the same compound, the “rate of glucose utilization” value ([1]; 1.5% isobutanol, 3.8 gdcw/L and 24 gdcw/L cultures) was “at least 1 gram per gdcw per hour”, the “rate of glucose utilization” value ([1]; 2% isobutanol, high cell density cultures) was “at least 0.5 gram per gdcw per hour” and the “rate of glucose utilization” value ([1]; 2.5% isobutanol, high cell density cultures) was “at least 0.4 gram per gdcw per hour”. The “rate of glucose utilization” value ([1]; 3% isobutanol, high cell density cultures) was “at least 0.2 gram per gdcw per hour”.
